In brackets after ≈: the same amount, converted by molar mass.

We go through 19 compounds from patent US6462055B2, “Alpha-methylbenzyl-containing thiourea inhibitors of herpes viruses containing a phenylenediamine group” (Wyeth, priority 1998, dated 2002).

The subject of the assay is VZV strain Ellen. Put plainly: VZV Antiviral (ELISA) Assay in human foreskin fibroblast cells. It counts as cell-based, varicella-zoster virus. To be noted: for IC50 / inhibition at 10 µg/mL: Human alphaherpesvirus 3, Fibroblast; for IC50: read-out: IC50 (ug/ml) VZV; for inhibition at 10 µg/mL: read-out: % inhibition 10 ug/ml VZV, 10 ug/ml. As for the experimental part:
For the generation of stock VZV to be used in the assay, VZV strain Ellen (ATCC #VR-1367) is used to infect human foreskin fibroblast (HFF) cells at low multiplicity (less than 0.1) and incubated overnight at 37° C. in 5% CO2. After the overnight incubation, the mixture of uninfected and VZV-infected HFF infected cells are then harvested and added to each well of 96-well plates (3.5×10^4 cells in 100 μl DMEM supplemented with 2% FBS) which contain test compound or the reference standard drug control (in 100 μl DMEM supplemented with 2% FBS per well). These cells are incubated for three days at 37° C. in 5% CO2, then fixed for ELISA assay. The primary antibody is murine anti-VZV glycoprotein II monoclonal antibody (Applied Biosystems, Inc. #13-145-100) and the secondary antibody is goat anti-mouse IgG linked to β-galactosidase. Thus the extent of viral replication is determined by assessing β-galactosidase activity by quantifying the generation of the 4-methyl umbelliferone fluorescent cleavage product after addition of the methyl umbelliferyl-β-D-galactoside (Sigma #M1633) substrate on a microfluorimeter (365 nm for excitation and 450 nm for emission). Antiviral activity (IC50) of the test compound is determined by comparing the flourescence obtained in absence of compound to that obtained in the presence of compound.
(In an ELISA, binding on a coated surface is turned into a signal by an enzyme label.)

With `O=C(Nc1ccc(NC(=S)NCc2cc(Cl)cc(Cl)c2)cc1)c1ccccc1F` [Example 583], the “IC50 (ug/ml) VZV” value was determined as 10 µg/mL (≈ 22.3 µM).
In the case of `CC(NC(=S)Nc1ccc(NC(=O)c2ccnc3ccccc23)cc1)c1ccc(F)cc1` (centres unmarked) [Example 989, Quinoline-4-carboxylic acid (4-{3-[1-(4-fluoro-phenyl)-ethyl]-thioureido}-phenyl)-amide], the IC50 was 3 µg/mL (≈ 6.75 µM).
For `O=C(Nc1ccc(NC(=S)NCc2cc(F)cc(F)c2)cc1)c1ccccc1F` [Example 580], the “IC50 (ug/ml) VZV” value is more than 10 µg/mL.
On to `COc1ccc(NC(=S)Nc2ccc(NC(=O)c3ccc(F)cc3)cc2)cc1Cl` [Example 823, N-{4-[3-(3-Chloro-4-methoxy-phenyl)-thioureido]-phenyl}-4-fluoro-benzamide], for which the inhibition at 10 µg/mL turned out to be 7% and the IC50 is more than 10 µg/mL.
Turning to `COc1cc(OC)c(NC(=S)Nc2ccc(NC(=O)c3cccc(NS(C)(=O)=O)c3)cc2)cc1Cl` [Example 137], the “IC50 (ug/ml) VZV” value was more than 15 µg/mL. In addition, the “% inhibition 10 ug/ml VZV” value (10 ug/ml) is reported as 72%.
As for `CC(NC(=S)Nc1ccc(NC(=O)c2ccccc2F)cc1)c1ccc(C(F)(F)F)cc1F` (centres unmarked) [Example 1106], the IC50 is more than 7.5 µg/mL.
On to `CC(C)Cc1cc(NC(=S)Nc2ccc(NC(=O)c3ccccc3F)cc2)cc(C(F)(F)F)c1` [Example 578], for which the “IC50 (ug/ml) VZV” value was more than 10 µg/mL.
`O=C(Nc1ccc(NC(=S)NCCOc2ccccc2)cc1)c1ccccc1F` [Example 625]: the IC50 turned out to be 4 µg/mL (≈ 9.77 µM).
`CSc1ccc(NC(=S)Nc2ccc(NC(=O)c3c(F)cccc3F)cc2)cc1Cl` [Example 848, N-{4-[3-(3-Chloro-4-methylsulfanyl-phenyl)-thioureido]-phenyl}-2,6-difluoro-benzamide]: the inhibition at 10 µg/mL is 101% and the IC50 was determined as 1.3 µg/mL (≈ 2.8 µM).
With `C[C@H](NC(=S)Nc1ccc(NC(=O)c2nccc3ccccc23)cc1)c1ccc(Cl)cc1` [Example 1109], the IC50 stood at 0.03 µg/mL (≈ 0.0651 µM).
Take `CC(C)(C)c1cccc(NC(=S)Nc2ccc(NC(=O)c3ccccc3F)cc2)c1` [Example 869, N-{4-[3-(3-tert-Butyl-phenyl)-thioureido]-phenyl}-2-fluoro-benzamide]: the inhibition at 10 µg/mL worked out at 77% and the IC50 was determined as 3 µg/mL (≈ 7.12 µM).
In the case of `COc1cc(OCC(F)(F)F)ccc1NC(=S)Nc1ccc(NC(=O)c2ccccc2F)cc1` [Example 1006, 2-Fluoro-N-(4-{3-[2-methoxy-4-(2,2,2-trifluoro-ethoxy)-phenyl]-thioureido}-phenyl)-benzamide], the IC50 came out at 11 µg/mL (≈ 22.3 µM).
Turning to `COc1cc(OC)c(NC(=S)Nc2ccc(NC(=O)c3ccccc3C)cc2)cc1Br` [Example 829, N-{4-[3-(5-Bromo-2,4-dimethoxy-phenyl)-thioureido]-phenyl}-2-methyl-benzamide], the inhibition at 10 µg/mL was found to be 50% and the IC50 was more than 15 µg/mL.
Consider `CC(NC(=S)Nc1ccc(NC(=O)c2ccccc2C#N)cc1)c1ccc(F)cc1` (centres unmarked) [Example 993, 2-Cyano-N-(4-{3-[1-(4-fluoro-phenyl)-ethyl]-thioureido}-phenyl)-benzamide], for which the IC50 was 2.7 µg/mL (≈ 6.45 µM).
For `O=C(Nc1ccc(NC(=S)Nc2ccc(I)c(Cl)c2)cc1)c1ccccc1F` [Example 916, N-{4-[3-(3-Chloro-4-iodo-phenyl)-thioureido]-phenyl}-2-fluoro-benzamide], the inhibition at 10 µg/mL worked out at 30% and the IC50 was more than 10 µg/mL.
On the same counts, the results for `COc1ccc(NC(=S)Nc2ccc(NC(=O)c3cccc(F)c3)cc2)cc1Cl` [Example 822, N-{4-[3-(3-Chloro-4-methoxy-phenyl)-thioureido]-phenyl}-3-fluoro-benzamide] are 0% and more than 10 µg/mL.
For the compound `CC(NC(=S)Nc1ccc(NC(=O)c2ccccc2I)cc1)c1ccc(F)cc1` (centres unmarked) [Example 812], the IC50 was found to be 3.4 µg/mL (≈ 6.55 µM).
For `O=C(Nc1ccc(NC(=S)NCc2ccc(F)c(C(F)(F)F)c2)cc1)c1ccccc1F` [Example 623], the IC50 is more than 10 µg/mL.
As for `CC(NC(=S)Nc1ccc(NC(=O)c2nccc3ccccc23)cc1)c1ccc(F)cc1` (centres unmarked) [Example 1110], the “IC50 (ug/ml) VZV” value is 0.05 µg/mL (≈ 0.112 µM).
